These results are taken from patent US20100173281A1, “HCV NS3 protease replicon shuttle vectors” (priority 2009, published 2010).

In test [1] the test system is replicons that contain HCV genotype-1b patient-derived NS3 protease domains in Lunet Huh7 cells. The test can be described thus: Phenotypic replicon assay (transient replicon, firefly luciferase reporter), genotype-1b patient-derived NS3 protease. Type of test: cell-based.
In test [2] the test system is replicons that contain HCV genotype-1a patient-derived NS3 protease domains in Lunet Huh7 cells. The test can be described thus: Phenotypic replicon assay (transient replicon, firefly luciferase reporter), genotype-1a patient-derived NS3 protease. Format: cell-based.
Test [3] has as its system replicon shuttle vector pSC_1b_NS3/Protease_EcoRV_AsiSI in Lunet Huh7 cells. The experiment in a line: Phenotypic replicon assay (transient replicon, firefly luciferase reporter), control shuttle vector. Conditions: read-out: Mean IC50. Type of test: cell-based, HCV. As for the experimental part: Phenotypic Replicon Assay
Five micrograms of DNA plasmids were linearized by Sca I restriction enzyme (Roche). After overnight digestion at 37° C., the DNA was purified using Qiagen PCR purification kit. One microgram of linearized DNA was used for the in vitro transcription using T7 RiboMAX Express (Promega) following manufacturer's protocol. After 2 hours of incubation at 37° C., DNase treatment was performed for 30 minutes at 37° C. to remove the DNA template. In vitro transcribed RNA was then purified using RNeasy spin column (Qiagen) following manufacturer's protocol.
The hepatoma Lunet Huh-7 cell line were cultured at 37° C. in a humidified atmosphere with 5% CO2 in Dulbecco's Modified Eagle Medium (DMEM) supplemented with Glutamax™ and […] sodium pyruvate. The medium was further supplemented with 10% (v/v) FBS and 1% (v/v) penicillin/streptomycin. All reagents were from Invitrogen/Gibco.
Four million Lunet Huh7 cells were transfected with 5 μg of in vitro transcribed RNA using electroporation. Cells were then resuspended in 7.2 ml of DMEM containing 5% FBS and plated in 96-well plate at 50000 cells/well (in 90 μl final volume). Inhibitors (when used) were added 24 hours post-transfection in 3 fold dilutions at a final DMSO concentration of 1% and firefly luciferase reporter signal was read 72 hours after addition of inhibitors using the Luciferase Assay system (Promega). The IC50 values were assessed as the inhibitor concentration at which a 50% reduction in the level of firefly luciferase reporter was observed as compared to the level of firefly luciferase signal without the addition of compounds.
The replication capacity of the replicon shuttle vector, pSC—1b_NS3/Protease_EcoRV_AsiSI, as well as those of replicons that contain HCV genotype-1a and genotype-1b patient-derived NS3 protease domains were tested with the luciferase signal as the readout and the results are shown on FIG. 3. The inhibitory effects of the HCV protease inhibitors, BILN2061, VX-950 and NM107 were also tested on these replicons and the results are shown on Table 1.

Setting [4] is: Hepatitis C virus, Huh-7, read-out: Mean IC50, GT-1b patient sample 206.
[5] abbreviates: Hepatitis C virus, Huh-7, read-out: Mean IC50, GT-1b patient sample 301.
The mark [6] stands for this setting: Hepatitis C virus, Huh-7, read-out: Mean IC50, GT-1b patient sample PC232.
Where [7] appears, read: Hepatitis C virus, Huh-7, read-out: Mean IC50, GT-1a patient sample RO-191.
Setting [8] is: Hepatitis C virus, Huh-7, read-out: Mean IC50, GT-1a patient sample RO-192.
The mark [9] stands for this setting: Hepatitis C virus, Huh-7, read-out: Mean IC50, GT-1a patient sample RO-193.
Setting [10] is: Hepatitis C virus, Huh-7, read-out: Mean IC50, GT-1a patient sample RO-194.
[11] abbreviates: Hepatitis C virus, Huh-7, read-out: Mean IC50, GT-1a patient sample RO-195.
Where [12] appears, read: Hepatitis C virus, Huh-7, read-out: Mean IC50, GT-1a patient sample RO-207.

Where two headings read alike, the source gives them in different places.

For `COc1ccc2c(O[C@@H]3C[C@H]4C(=O)N[C@]5(C(=O)O)C[C@H]5/C=C\CCCCC[C@H](NC(=O)OC5CCCC5)C(=O)N4C3)cc(-c3csc(NC(C)C)n3)nc2c1` [BILN2061], the IC50 in test [1] (setting [4]) came to 0.643 nM; in test [1] (setting [5]), 0.378 nM; in test [1] (setting [6]) it was 0.468 nM; in test [2] (setting [7]) it was 0.798 nM; in test [2] (setting [8]) it was 0.34 nM; in test [2] (setting [9]), 0.298 nM. Moreover, the 50% inhibitory concentration (IC50) stood at 0.665 nM in test [2] (setting [10]); 0.629 nM in test [2] (setting [11]); 0.386 nM in test [2] (setting [12]); 0.489 nM in test [3] (Hepatitis C virus, Huh-7, 72 h).
`CCC[C@H](NC(=O)[C@@H]1[C@H]2CCC[C@H]2CN1C(=O)[C@@H](NC(=O)[C@@H](NC(=O)c1cnccn1)C1CCCCC1)C(C)(C)C)C(=O)C(=O)NC1CC1` [VX-950]: the half-inhibitory concentration (IC50) is 0.175 nM in test [1] (setting [4]); 0.162 nM in test [1] (setting [5]); 0.166 nM in test [1] (setting [6]); 0.057 nM in test [2] (setting [7]); 0.068 nM in test [2] (setting [8]); 0.132 nM in test [2] (setting [9]). For the same molecule, the IC50 in test [2] (setting [10]) was 0.052 nM; in test [2] (setting [11]), 0.028 nM; in test [2] (setting [12]) it was 0.083 nM; in test [3] (Hepatitis C virus, Huh-7, 72 h) it was 0.16 nM.
In the case of `C[C@@]1(O)[C@H](O)[C@@H](CO)O[C@H]1n1ccc(N)nc1=O` [NM107], the half-maximal inhibitory concentration (IC50) in test [1] (GT-1b patient sample 206, read-out: Mean IC50) turned out to be 279 nM; in test [1] (GT-1b patient sample 301, read-out: Mean IC50), 279 nM; in test [1] (GT-1b patient sample PC232, read-out: Mean IC50), 449 nM; in test [2] (GT-1a patient sample RO-191, read-out: Mean IC50) it was 539 nM; in test [2] (GT-1a patient sample RO-192, read-out: Mean IC50), 554 nM; in test [2] (GT-1a patient sample RO-193, read-out: Mean IC50), 640 nM. The 50% inhibitory concentration (IC50) stood at 509 nM in test [2] (GT-1a patient sample RO-194, read-out: Mean IC50); 312 nM in test [2] (GT-1a patient sample RO-195, read-out: Mean IC50); 1160 nM in test [2] (GT-1a patient sample RO-207, read-out: Mean IC50); 283 nM in test [3] (replicon control pSC_1b_NS3/Protease_EcoRV_AsiSI, luciferase read 72 hours after addition of inhibitors).
